Drawing on PubChem BioAssay AID1259407 (Chemical Carcinogenesis Research Information System (CCRIS), 2018), this text covers mutagenic call for 2 compounds.

The source made the active and inactive calls. No rule for the calls is given here.

In the data set the test system is CCRIS mutagenicity, Ames/micronucleus/aberration tests. Description: CCRIS mutagenicity studies.
Where [1] appears, read: Test System: AMES SALMONELLA TYPHIMURIUM, Strain/Indicator: TA98, Metabolic Activation: NONE, Method: PREINCUBATION
Where [2] appears, read: Test System: AMES SALMONELLA TYPHIMURIUM, Strain/Indicator: TA100, Metabolic Activation: NONE, Method: PREINCUBATION
Setting [3] is: Test System: AMES SALMONELLA TYPHIMURIUM, Strain/Indicator: TA1535, Metabolic Activation: NONE, Method: PREINCUBATION

As to `CC(=O)Oc1cc(C=O)cc2c1C(COC(N)=O)C1(OC(C)=O)ON2CC2C1N2C(C)=O` (stereo unspecified), the mutagenic call by setting is: under setting [1], “inactive; negative”; (Test System: AMES SALMONELLA TYPHIMURIUM, Strain/Indicator: TA98, Metabolic Activation: RAT, LIVER, S-9, PHENOBARBITAL AND 5,6-BENZOFLAVONE, Method: PREINCUBATION) “inactive; negative”; under setting [2], “inactive; negative”; (Test System: AMES SALMONELLA TYPHIMURIUM, Strain/Indicator: TA100, Metabolic Activation: RAT, LIVER, S-9, PHENOBARBITAL AND 5,6-BENZOFLAVONE, Method: PREINCUBATION) “inactive; negative”; (Test System: AMES SALMONELLA TYPHIMURIUM, Strain/Indicator: TA102, Metabolic Activation: NONE, Method: PREINCUBATION) “inactive; negative”; (Test System: AMES SALMONELLA TYPHIMURIUM, Strain/Indicator: TA102, Metabolic Activation: RAT, LIVER, S-9, PHENOBARBITAL AND 5,6-BENZOFLAVONE, Method: PREINCUBATION) “active; positive”. Further, the mutagenic call runs as follows: under setting [3], “inactive; negative”; (Test System: AMES SALMONELLA TYPHIMURIUM, Strain/Indicator: TA1535, Metabolic Activation: RAT, LIVER, S-9, PHENOBARBITAL AND 5,6-BENZOFLAVONE, Method: PREINCUBATION) “inactive; negative”; (Test System: AMES SALMONELLA TYPHIMURIUM, Strain/Indicator: TA1537, Metabolic Activation: NONE, Method: PREINCUBATION) “inactive; negative”; (Test System: AMES SALMONELLA TYPHIMURIUM, Strain/Indicator: TA1537, Metabolic Activation: RAT, LIVER, S-9, PHENOBARBITAL AND 5,6-BENZOFLAVONE, Method: PREINCUBATION) “inactive; negative”.
With `CN(C)c1ccc(N=Nc2ccccc2)cc1`, the mutagenic call reads like this: (End Point: IN VIVO CHROMOSOMAL ABERRATIONS, Test System: BONE MARROW CELLS, Species: MOUSE, Strain/Sex: SWISS ALBINO, Route: DIET) “active; positive (% of aberrations increased with time)”; (End Point: IN VIVO MICRONUCLEUS, Test System: BONE MARROW CELL ERYTHROCYTES, Species: MOUSE, Strain/Sex: SWISS ALBINO, Route: DIET) “active; positive (% micronuclei increased with time)”; (End Point: IN VIVO MICRONUCLEUS, Test System: HEPATOCYTES, Species: RAT, Strain/Sex: FISHER 344 OR SD/MALE, Route: ORAL OR IP) “active; positive”; (End Point: IN VIVO MICRONUCLEUS, Test System: PERIPHERAL BLOOD RETICULOCYTES, Species: RAT, Strain/Sex: FISHER 344 OR SD/MALE, Route: ORAL OR IP) “active; positive”; (End Point: In vivo micronucleus, Test System: Micronucleated hepatocytes, Species: Rat, Strain/Sex: F344/Male, Route: Oral) “active; positive (highest dose only; p<0.05)”; (Test System: AMES SALMONELLA TYPHIMURIUM, Strain/Indicator: TA97, Metabolic Activation: HAMSTER, LIVER, S-9, AROCLOR 1254 (10%), Method: PREINCUBATION) “inactive; negative”. For the same compound, the mutagenic call reads like this: (Test System: AMES SALMONELLA TYPHIMURIUM, Strain/Indicator: TA97, Metabolic Activation: NONE, Method: PREINCUBATION) “inactive; negative”; (Test System: AMES SALMONELLA TYPHIMURIUM, Strain/Indicator: TA97, Metabolic Activation: RAT, LIVER, S-9, AROCLOR 1254 (10%), Method: PREINCUBATION) “inactive; negative”; (Test System: AMES SALMONELLA TYPHIMURIUM, Strain/Indicator: TA98, Metabolic Activation: HAMSTER, LIVER, S-9, AROCLOR 1254 (10%), Method: PREINCUBATION) “active; positive”; under setting [1], “inactive; negative”; (Test System: AMES SALMONELLA TYPHIMURIUM, Strain/Indicator: TA98, Metabolic Activation: RAT, LIVER, S-9, AROCLOR 1254 (10%), Method: PREINCUBATION) “inactive; negative”; (Test System: AMES SALMONELLA TYPHIMURIUM, Strain/Indicator: TA98, Metabolic Activation: RAT, LIVER, S-9, AROCLOR 1254, Method: STANDARD PLATE) “active; positive”. Besides, the mutagenic call reads like this: (Test System: AMES SALMONELLA TYPHIMURIUM, Strain/Indicator: TA98, Metabolic Activation: RAT, LIVER, S-9, AROCLOR, Method: PREINCUBATION) “active; positive”; (Test System: AMES SALMONELLA TYPHIMURIUM, Strain/Indicator: TA98, Metabolic Activation: RAT, LIVER, S-9, AROCLOR, Method: STANDARD PLATE) “active; positive”; (Test System: AMES SALMONELLA TYPHIMURIUM, Strain/Indicator: TA98, Metabolic Activation: RAT, LIVER, S-9, KC500 OR PHENOBARBITAL, Method: LIQUID SUSPENSION) “active; positive”; (Test System: AMES SALMONELLA TYPHIMURIUM, Strain/Indicator: TA100, Metabolic Activation: HAMSTER, LIVER, S-9, AROCLOR 1254 (5%), Method: PREINCUBATION) “inactive; negative”; (Test System: AMES SALMONELLA TYPHIMURIUM, Strain/Indicator: TA100, Metabolic Activation: HAMSTER, LIVER, S-9, AROCLOR 1254 (10%), Method: PREINCUBATION) “inactive; negative”; (Test System: AMES SALMONELLA TYPHIMURIUM, Strain/Indicator: TA100, Metabolic Activation: HAMSTER, LIVER, S-9, AROCLOR 1254 (30%), Method: PREINCUBATION) “active; positive”. For the same compound, the mutagenic call was “inactive; negative” under setting [2]; “inactive; negative” (Test System: AMES SALMONELLA TYPHIMURIUM, Strain/Indicator: TA100, Metabolic Activation: RAT, LIVER, S-9, AROCLOR 1254 (5 OR 30%), Method: PREINCUBATION); “active; positive” (Test System: AMES SALMONELLA TYPHIMURIUM, Strain/Indicator: TA100, Metabolic Activation: RAT, LIVER, S-9, AROCLOR 1254, Method: STANDARD PLATE); “active; positive” (Test System: AMES SALMONELLA TYPHIMURIUM, Strain/Indicator: TA100, Metabolic Activation: RAT, LIVER, S-9, KC500 OR PHENOBARBITAL, Method: LIQUID SUSPENSION); “inactive; negative” (Test System: AMES SALMONELLA TYPHIMURIUM, Strain/Indicator: TA1535, Metabolic Activation: HAMSTER, LIVER, S-9, AROCLOR 1254 (10%), Method: PREINCUBATION); “inactive; negative” under setting [3]. For the same compound, the mutagenic call (Test System: AMES SALMONELLA TYPHIMURIUM, Strain/Indicator: TA1535, Metabolic Activation: RAT, LIVER, S-9, AROCLOR 1254 (10%), Method: PREINCUBATION) is “inactive; negative”; the mutagenic call (Test System: CHINESE HAMSTER V-79, Strain/Indicator: V-79/6-THIOGUANINE, Metabolic Activation: NONE, Method: SUSPENSION/PLATE) was “inactive; negative”; the mutagenic call (Test System: CHINESE HAMSTER V-79, Strain/Indicator: V-79/6-THIOGUANINE, Metabolic Activation: RAT, LIVER, S-9, PHENOBARBITAL AND BETA-NAPHTHOFLAVONE, Method: SUSPENSION/PLATE) was “inactive; negative”; the mutagenic call (Test System: E. COLI, Strain/Indicator: WP2 UVRA, Metabolic Activation: HAMSTER, LIVER, S-9, AROCLOR 1254, Method: STANDARD PLATE) was “inactive; negative”; the mutagenic call (Test System: E. COLI, Strain/Indicator: WP2 UVRA, Metabolic Activation: HAMSTER, LIVER, S-9, Method: STANDARD PLATE) was “inactive; negative”; the mutagenic call (Test System: E. COLI, Strain/Indicator: WP2 UVRA, Metabolic Activation: MOUSE, LIVER, S-9, AROCLOR 1254, Method: STANDARD PLATE) is “inactive; negative”. Further, the mutagenic call (Test System: E. COLI, Strain/Indicator: WP2 UVRA, Metabolic Activation: MOUSE, LIVER, S-9, Method: STANDARD PLATE) is “inactive; negative”; the mutagenic call (Test System: E. COLI, Strain/Indicator: WP2 UVRA, Metabolic Activation: NONE, Method: STANDARD PLATE) is “inactive; negative”; the mutagenic call (Test System: E. COLI, Strain/Indicator: WP2 UVRA, Metabolic Activation: RAT, LIVER, S-9, AROCLOR 1254, Method: STANDARD PLATE) was “inactive; negative”; the mutagenic call (Test System: E. COLI, Strain/Indicator: WP2 UVRA, Metabolic Activation: RAT, LIVER, S-9, Method: STANDARD PLATE) was “inactive; negative”; the mutagenic call (Test System: MOUSE LYMPHOMA, Strain/Indicator: L5178Y (TK+/TK-), Metabolic Activation: NONE, Method: SUSPENSION/PLATE) is “inactive; negative”; the mutagenic call (Test System: MOUSE LYMPHOMA, Strain/Indicator: L5178Y (TK+/TK-), Metabolic Activation: RAT, LIVER, S-9, AROCLOR 1254, Method: SUSPENSION/PLATE) was “active; positive”.
